Data from patent publication US20030153623A1, “Solid preparation containing sparingly soluble NSAIDs” (Yamanouchi Pharmaceutical Co., Ltd., priority 1998, published 2003).

Assays:
Assay type in all cases: physicochemical
[1] = Dissolution test, puddle method, first solution pH 1.2, various chemicals (Test Example 5); conditions: raw material of the chemical; dissolved for 5 minutes; first solution (pH 1.2) 500 ml; 50 rpm; a dose of each chemical
Description: Samples 8-1 and 8-9, and raw materials of various chemicals as the control, were examined by the puddle method in an dissolution test according to the Japanese Pharmacopoeia, and the amount of ibuprofen (μg/ml) dissolved for 5 minutes in the test was determined. The test solution used was the first solution (pH 1.2) in a disintegration test in the Japanese Pharmacopoeia, the amount of the dissolution medium was 500 ml, and the number of puddle revolutions was 50 rpm. Each sample contains a dose of each chemical.

[2] = Dissolution test, puddle method, Japanese Pharmacopoeia, water (Test Example 1); conditions: ibuprofen dissolved for 5 minutes; water 500 ml; 100 rpm; ibuprofen content 150 mg
Description: Each sample was tested by the puddle method in an dissolution test according to the Japanese Pharmacopoeia, and the amount of ibuprofen (μg/ml) dissolved for 5 minutes in the test was determined. Water was used as the test solution, the amount of the dissolution medium was 500 ml, and the number of puddle revolutions was 100 rpm. The raw ibuprofen material, Samples 5-1 to 5-7, and Sample 6 were examined respectively in the test. The content of ibuprofen in every sample was 150 mg.

[3] = Dissolution test, puddle method, first solution pH 1.2 (Test Example 4)
Description: Samples 7-1 and 7-9, and the raw ibuprofen powder as the control, were examined by the puddle method in an dissolution test according to the Japanese Pharmacopoeia, and the amount of ibuprofen (μg/ml) dissolved for 5 minutes in the test was determined. The test solution used was a first solution (pH 1.2) in a disintegration test in the Japanese Pharmacopoeia, the amount of the dissolutuion medium was 500 ml, and the number of puddle revolutions was 50 rpm. The content of ibuprofen in every sample was 150 mg.

Structure (SMILES) | Dissolved amount, Control [1] | Dissolved amount [2] | Solubility in first solution (pH 1.2), in words ([3]; first solution (pH 1.2) of the disintegration test) | Dissolved amount ([3]; ibuprofen dissolved for 5 minutes, first solution (pH 1.2) 500 ml, 50 rpm, ibuprofen content 150 mg)
CC(C(=O)O)c1ccc(-c2ccccc2)c(F)c1 (stereo not shown) [Flurbiprofen] | 0.22 µg/mL |  |  | 
CC(C(=O)O)c1cccc(C(=O)c2ccccc2)c1 (stereo not shown) [Ketoprofen] | 1.57 µg/mL |  |  | 
CC(C)Cc1ccc(C(C)C(=O)O)cc1 (stereo not shown) [Ibuprofen, ibuprofen] | 0.00 µg/mL | 5.7 µg/mL | not dissolved | 0.00 µg/mL
CC(C(=O)O)c1cccc(Oc2ccccc2)c1 (stereo not shown) [Phenoprofen] | 11.47 µg/mL |  |  | 

Now from value to compound:

Dissolved amount, Control [1] | Dissolved amount [2] | Solubility in first solution (pH 1.2), in words ([3]; first solution (pH 1.2) of the disintegration test) | Dissolved amount ([3]; ibuprofen dissolved for 5 minutes, first solution (pH 1.2) 500 ml, 50 rpm, ibuprofen content 150 mg) | Structure (SMILES)
101.73 µg/mL |  |  |  | CC(C(=O)O)c1ccc(CC2CCCC2=O)cc1 (stereo not shown) [Loxoprofen]
0.09 µg/mL |  |  |  | COc1ccc2c(c1)c(CC(=O)O)c(C)n2C(=O)c1ccc(Cl)cc1 [Indomethacin]
17.81 µg/mL |  |  |  | CC(C(=O)O)c1ccc2c(c1)Cc1cccnc1O2 (stereo not shown) [Pranoprofen]
